Like-named read-outs stand apart in the source and are kept apart here.
Legend:
in vivo [1] = conditions: CD1-nude, mouse, Kp,uu (unbound ECF to plasma partition coefficient), mean (SD)
in vitro = conditions: CD1, mouse, plasma
[2] = CD1-nude, mouse
[3] = tested on: medulloblastoma/primitive neuroectodermal tumor (cell line JRMB-6); conditions: single agent, 130 mg/kg IP daily for five consecutive days; cited from earlier work
in vivo [4] = conditions: female, CD1-nude, mouse, ip, 130 mg/kg
[5] = female, CD1-nude, mouse, in vivo
[6] = humans; cited from earlier work

O=P1(N(CCCl)CCCl)NCCCO1 (stereo not drawn) [cyclophosphamide]
Kp uu (in vivo [1]): 0.22 | fraction unbound (in vitro): 0.26 | AUCECF,0-5h (unbound brain ECF exposure), mean (SD) ([2]; in vivo): 6.3 (1.3) μM·h | AUCECF,0-5h (unbound tumor ECF exposure), mean (SD) ([2]; in vivo): 4.0 (1.4) μM·h | AUCECF,0-5h (unbound tumor or brain ECF exposure), mean (SD) ([2]; in vivo): 5.2 (1.8) μM·h | Influx clearance CLin, estimate (RSE%) ([2]; in vivo): 4.3·10^−4 (16) L/h/kg | Inter-individual variability, influx clearance η-CLin, estimate (RSE%) ([2]; in vivo): 0.31 (51) | Proportional residual variability εprop, estimate (RSE%) ([2]; in vivo): 0.45 (12) | Efflux clearance CLef, estimate (RSE%) ([2]; not told): 2.4·10^−3 (7.0) L/h/kg | Inter-individual variability, efflux clearance η-CLef, estimate (RSE%) ([2]; not told): 0.23 (22) | Response rate [3]: 85% | Survival versus saline controls [3]: statistically improved survival | AUC (in vivo [4]): 113 µM·h | Central clearance CL, estimate (RSE%) [5]: 4.4 (3.7) L/h/kg | Central volume V, estimate (RSE%) [5]: 0.65 (5.0) L/kg | Inter-individual variability, central clearance η-CL, estimate (RSE%) [5]: 0.11 (17) | Peripheral clearance Q, estimate (RSE%) [5]: 0.18 (4.3) L/h/kg | Peripheral volume Vp, estimate (RSE%) [5]: 0.062 (2.6) L/kg | Proportional residual variability εprop, estimate (RSE%) [5]: 0.24 (11) | Mean observed maximum concentrations ([5]; ip, 130 mg/kg): 352.9 µM | FU (fraction unbound) [6]: 7-17%

— article PMC7413074 (Journal of pharmacy & pharmaceutical sciences : a …, 2019)
